Converted amounts (≈) assume the structure as drawn. Read-outs that look alike come from different tables or passages of the source.
Columns and labels:
[1] = PAMPA permeability pH 7.4
[2] = target: PI3K alpha (Homo sapiens, UniProt P42336); test: PI3K-alpha Fluorescence Polarization Assay; type: biochemical
[3] = Solubility pH 7.4; conditions: pH 7.4, aqueous buffer
[4] = Microsome Stability (15 min), human; type: in vitro ADME; conditions: microsomes, Phase I (NADPH), read-out: Microsome Stability (15 min) T ½ Phase I human
[5] = Microsome Stability (15 min), nude mouse; type: in vitro ADME; conditions: microsomes, Phase I (NADPH), read-out: Microsome Stability (15 min) T ½ Phase I nude mouse
[6] = In vivo blood/plasma and tumor levels of prodrug and metabolites after 50 mg, kg po; conditions: 50 mg
[7] = Buffer Stability (37° C.)
[8] = Microsome Stability (15 min), rat; type: in vitro ADME; conditions: microsomes, Phase I (NADPH), read-out: Microsome Stability (15 min) T ½ Phase I rat
[9] = Plasma Stability (37° C.), rat

Sequence of PI3K alpha (P42336 whole entry, species assumed): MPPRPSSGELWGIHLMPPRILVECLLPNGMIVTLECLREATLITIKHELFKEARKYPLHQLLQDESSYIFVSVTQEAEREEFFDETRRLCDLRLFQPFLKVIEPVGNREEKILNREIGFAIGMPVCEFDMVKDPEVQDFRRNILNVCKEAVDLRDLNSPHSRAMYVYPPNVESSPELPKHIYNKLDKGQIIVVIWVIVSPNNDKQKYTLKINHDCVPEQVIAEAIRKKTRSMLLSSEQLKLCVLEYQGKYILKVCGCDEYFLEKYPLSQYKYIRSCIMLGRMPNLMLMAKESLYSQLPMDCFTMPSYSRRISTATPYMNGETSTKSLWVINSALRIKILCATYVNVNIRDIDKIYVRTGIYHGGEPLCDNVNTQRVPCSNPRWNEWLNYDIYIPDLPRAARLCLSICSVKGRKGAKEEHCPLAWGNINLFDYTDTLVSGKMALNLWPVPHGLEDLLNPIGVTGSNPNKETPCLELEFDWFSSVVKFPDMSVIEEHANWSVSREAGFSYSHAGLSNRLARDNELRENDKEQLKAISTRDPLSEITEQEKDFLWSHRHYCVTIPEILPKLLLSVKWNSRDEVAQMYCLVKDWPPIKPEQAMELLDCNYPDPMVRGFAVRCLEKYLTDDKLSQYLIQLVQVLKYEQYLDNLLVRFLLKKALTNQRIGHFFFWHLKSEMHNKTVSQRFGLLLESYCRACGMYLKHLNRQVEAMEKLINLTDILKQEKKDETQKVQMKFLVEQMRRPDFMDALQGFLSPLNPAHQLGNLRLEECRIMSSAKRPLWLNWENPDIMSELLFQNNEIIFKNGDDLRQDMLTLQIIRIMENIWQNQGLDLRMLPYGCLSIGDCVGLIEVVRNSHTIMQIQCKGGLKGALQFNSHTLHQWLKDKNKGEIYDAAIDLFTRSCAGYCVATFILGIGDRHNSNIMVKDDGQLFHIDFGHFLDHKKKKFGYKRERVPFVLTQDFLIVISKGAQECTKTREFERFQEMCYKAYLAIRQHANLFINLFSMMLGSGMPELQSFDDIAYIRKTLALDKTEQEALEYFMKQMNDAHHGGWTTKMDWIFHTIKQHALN
Sequence of PI3K alpha (P27986 whole entry partner, species assumed): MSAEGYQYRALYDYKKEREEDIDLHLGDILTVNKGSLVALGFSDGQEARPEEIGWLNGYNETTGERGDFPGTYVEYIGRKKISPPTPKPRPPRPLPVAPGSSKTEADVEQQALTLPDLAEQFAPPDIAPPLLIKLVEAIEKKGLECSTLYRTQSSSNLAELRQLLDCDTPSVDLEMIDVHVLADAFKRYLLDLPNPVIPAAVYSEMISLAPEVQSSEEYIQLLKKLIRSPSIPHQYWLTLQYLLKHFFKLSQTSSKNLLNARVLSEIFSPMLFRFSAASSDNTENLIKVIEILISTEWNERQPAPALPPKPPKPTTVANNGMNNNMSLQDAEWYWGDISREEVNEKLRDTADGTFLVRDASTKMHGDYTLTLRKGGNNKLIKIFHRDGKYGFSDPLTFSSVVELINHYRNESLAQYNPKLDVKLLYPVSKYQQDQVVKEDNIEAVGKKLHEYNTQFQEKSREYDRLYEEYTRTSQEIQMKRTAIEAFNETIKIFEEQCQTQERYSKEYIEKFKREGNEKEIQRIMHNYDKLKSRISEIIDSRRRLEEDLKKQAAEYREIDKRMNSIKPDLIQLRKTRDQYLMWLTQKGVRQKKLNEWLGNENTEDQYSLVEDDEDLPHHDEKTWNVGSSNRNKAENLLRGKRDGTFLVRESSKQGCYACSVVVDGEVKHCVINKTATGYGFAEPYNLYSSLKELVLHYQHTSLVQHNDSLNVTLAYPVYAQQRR

Row | IC50 ([2]; read-out: PI3K alpha Mean IC50) [µM] | Buffer Stability (37° C.) % Remaining (at 16-23 hours) SGF [7] [%] | Buffer Stability (37° C.) % Remaining (at 16-23 hours) SIF [7] [%] | Buffer Stability (37° C.) % Remaining (at 16-23 hours) pH 1 [7] [%] | Buffer Stability (37° C.) % Remaining (at 16-23 hours) pH 4.5 [7] [%] | Buffer Stability (37° C.) % Remaining (at 16-23 hours) pH 6.6 [7] [%] | Buffer Stability (37° C.) % Remaining (at 16-23 hours) pH 7.4 [7] [%] | Buffer Stability (37° C.) % Remaining (at 16-23 hours) pH 9 [7] [%] | half-life ([5]; nude, mouse) [min] | SMILES | PAMPA Pe [1] | solubility [3] [µg/mL] | IC50 [2] [µM] | half-life [4] [min] | half-life [5] [min] | plasma prodrug concentration ([6]; 0.5 h) | plasma prodrug concentration ([6]; 2 h) | plasma prodrug concentration ([6]; 6 h (third value)) | half-life [8] [min] | Plasma Stability (37° C.) % Remaining (3-3.5 hours) rat [9] [%]
1 | 0.313 | – | – | – | – | – | – | – | – | COC(=O)Oc1cc(OC(=O)OC)c2c(c1)O/C(=C\c1cn(CCCN(C)C)c3ccc(OC)cc13)C2=O [Example 13, (2Z)-2-({1-[3-(dimethylamino)propyl]-5-methoxy-1H-indol-3-yl}methylene)-3-oxo-2,3-dihydro-1-benzofuran-4,6-diyl dimethyl biscarbonate] | 0.19 10e−6 cm/s | 43 (≈ 82 µM) | – | – | – | – | – | – | – | –
2 | – | – | – | – | – | – | – | – | – | COc1ccc2c(c1)c(/C=C1\Oc3cc(OC(=O)N(c4ccccc4)c4ccccc4)cc(OC(=O)N(c4ccccc4)c4ccccc4)c3C1=O)c(C)n2CCN1CCN(C)CC1 [Example 29, (2Z)-2-({5-methoxy-2-methyl-1-[2-(4-methylpiperazin-1-yl)ethyl]-1H-indol-3-yl}methylene)-3-oxo-2,3-dihydro-1-benzofuran-4,6-diyl bis(diphenylcarbamate)] | 0 10e−6 cm/s | 5 (≈ 5.85 µM) | 1 | – | – | – | – | – | – | –
3 | – | – | – | – | – | – | – | – | – | COc1ccc2c(c1)c(/C=C1\Oc3cc(OC(=O)N(C(C)C)C(C)C)cc(OC(=O)N(C(C)C)C(C)C)c3C1=O)c(C)n2CCN1CCN(C)CC1 [Example 28, (2Z)-2-({5-methoxy-2-methyl-1-[2-(4-methylpiperazin-1-yl)ethyl]-1H-indol-3-yl}methylene)-3-oxo-2,3-dihydro-1-benzofuran-4,6-diyl bis(diisopropylcarbamate)] | 0.05 10e−6 cm/s | – | 9.5 | 8 | 24 | 1141, ng, ml | 940, ng, ml | 1106 ng, ml | – | –
4 | 8.53 | 99 | 64 | 96 | 73 | 75 | 4 | 0 | – | COc1ccc2c(c1)c(/C=C1\Oc3cc(OC(=O)c4ccccc4)cc(OC(=O)c4ccccc4)c3C1=O)c(C)n2CCN1CCN(C)CC1 [Example 16, (2Z)-2-({5-methoxy-2-methyl-1-[2-(4-methylpiperazin-1-yl)ethyl]-1H-indol-3-yl}methylene)-3-oxo-2,3-dihydro-1-benzofuran-4,6-diyl dibenzoate] | 0 10e−6 cm/s | – | – | > 30 | – | – | – | – | 10 | –
5 | – | – | – | – | – | – | – | – | – | CCOP(=O)(OCC)Oc1ccc2c(c1)O/C(=C\c1c(-c3ccccc3)[nH]c3ccc(OC)cc13)C2=O [Example 34, diethyl (2Z)-2-[(5-methoxy-2-phenyl-1H-indol-3-yl)methylene]-3-oxo-2,3-dihydro-1-benzofuran-6-yl phosphate] | 0 10e−6 cm/s | – | 5.67 | 26 | > 30 | 6 ng, ml | 2 ng, ml | bql | 17 | –
6 | > 10 | 104 | 0 | 86 | 71 | 50 | 5 | 0 | – | COc1ccc2c(c1)c(/C=C1\Oc3cc(OC(=O)c4ccccc4)cc(OC(=O)c4ccccc4)c3C1=O)cn2CCCN(C)C [Example 24, (2Z)-2-({1-[3-(dimethylamino)propyl]-5-methoxy-1H-indol-3-yl}methylene)-3-oxo-2,3-dihydro-1-benzofuran-4,6-diyl dibenzoate] | 0 10e−6 cm/s | – | – | 22 | – | – | – | – | 12 | 6
7 | 0.013 | 87 | 0 | 80 | 37 | 42 | 0 | 0 | 4 | COC(=O)Oc1cc(OC(=O)OC)c2c(c1)O/C(=C\c1c(-c3ccccc3)[nH]c3ccc(OC)cc13)C2=O [Example 22, (2Z)-2-[(5-methoxy-2-phenyl-1H-indol-3-yl)methylene]-3-oxo-2,3-dihydro-1-benzofuran-4,6-diyl dimethyl biscarbonate] | 0 10e−6 cm/s | – | – | 3 | – | – | – | – | – | 0
8 | 0.181 | 106 | 35 | 104 | 74 | 60 | 54 | 0 | > 30 | COc1ccc2[nH]c(-c3ccccc3)c(/C=C3\Oc4cc(OC(=O)Oc5ccccc5)ccc4C3=O)c2c1 [Example 19, (2Z)-2-[(5-methoxy-2-phenyl-1H-indol-3-yl)methylene]-3-oxo-2,3-dihydro-1-benzofuran-6-yl phenyl carbonate] | 0 10e−6 cm/s | – | – | 28 | – | – | – | – | > 30 | 10
9 | – | – | – | – | – | – | – | – | – | Cn1cc(/C=C2\Oc3cc(O)cc(O)c3C2=O)c2c(-c3ccccc3)cccc21 [(2Z)-4,6-dihydroxy-2-[(1-methyl-4-phenyl-1H-indol-3-yl)methylene]-1-benzofuran-3(2H)-one] | 0.04 10e−6 cm/s | – | – | – | – | – | – | – | 21 | –
10 | – | – | – | – | – | – | – | – | – | CCOP(=O)(OCC)Oc1cc2c(c(OP(=O)(OCC)OCC)c1)C(=O)/C(=C/c1c(-c3ccccc3)[nH]c3ccc(OC)cc13)O2 [Example 32, tetraethyl (2Z)-2-[(5-methoxy-2-phenyl-1H-indol-3-yl)methylene]-3-oxo-2,3-dihydro-1-benzofuran-4,6-diyl bis(phosphate)] | 0 10e−6 cm/s | – | 11 | 2 | – | – | – | – | 7 | –
11 | 0.472 | – | – | – | – | – | – | – | – | COc1ccc2[nH]c(-c3ccccc3)c(/C=C3\Oc4cc(OC(=O)c5ccccc5)cc(OC(=O)c5ccccc5)c4C3=O)c2c1 [Example 6, (2Z)-2-[(5-methoxy-2-phenyl-1H-indol-3-yl)methylene]-3-oxo-2,3-dihydro-1-benzofuran-4,6-diyl dibenzoate] | 0.12 10e−6 cm/s | – | – | – | – | – | – | – | – | –

Row | SMILES | IC50 ([2]; read-out: PI3K alpha Mean IC50) [µM] | Buffer Stability (37° C.) % Remaining (at 16-23 hours) SGF [7] [%] | Buffer Stability (37° C.) % Remaining (at 16-23 hours) SIF [7] [%] | Buffer Stability (37° C.) % Remaining (at 16-23 hours) pH 1 [7] [%] | Buffer Stability (37° C.) % Remaining (at 16-23 hours) pH 4.5 [7] [%] | Buffer Stability (37° C.) % Remaining (at 16-23 hours) pH 6.6 [7] [%] | Buffer Stability (37° C.) % Remaining (at 16-23 hours) pH 7.4 [7] [%] | Buffer Stability (37° C.) % Remaining (at 16-23 hours) pH 9 [7] [%] | half-life ([5]; nude, mouse) [min] | PAMPA Pe [1] | solubility [3] [µg/mL] | IC50 [2] [µM] | half-life [4] [min] | half-life [5] [min] | plasma prodrug concentration ([6]; 0.5 h) | plasma prodrug concentration ([6]; 2 h) | plasma prodrug concentration ([6]; 6 h (third value)) | half-life [8] [min] | Plasma Stability (37° C.) % Remaining (3-3.5 hours) rat [9] [%]
12 | COc1ccc2[nH]c(-c3ccccc3)c(/C=C3\Oc4cc(OC(=O)N(c5ccccc5)c5ccccc5)ccc4C3=O)c2c1 [Example 20, (2Z)-2-[(5-methoxy-2-phenyl-1H-indol-3-yl)methylene]-3-oxo-2,3-dihydro-1-benzofuran-6-yl diphenylcarbamate] | > 10 | 100 | 100 | 100 | 100 | 100 | 100 | 95 | – | Undetected | – | – | > 30 | > 30 | – | – | – | > 30 | 91
13 | COc1ccc2[nH]c(-c3ccccc3)c(/C=C3\Oc4cc(OC(=O)N(C)C)ccc4C3=O)c2c1 [Example 18, (2Z)-2-[(5-methoxy-2-phenyl-1H-indol-3-yl)methylene]-3-oxo-2,3-dihydro-1-benzofuran-6-yl dimethylcarbamate] | – | 100 | 101 | 99 | 100 | 100 | 100 | 99 | – | Undetected | – | 6.35 | 13 | > 30 | – | – | – | 28 | 0
14 | COc1ccc2c(c1)c(/C=C1\Oc3cc(OC(=O)N(c4ccccc4)c4ccccc4)cc(OC(=O)N(c4ccccc4)c4ccccc4)c3C1=O)cn2CCCN(C)C [Example 21, (2Z)-2-({1-[3-(dimethylamino)propyl]-5-methoxy-1H-indol-3-yl}methylene)-3-oxo-2,3-dihydro-1-benzofuran-4,6-diyl bis(diphenylcarbamate)] | – | 99 | 45 | 118 | 103 | 91 | 98 | 87 | – | 0 10e−6 cm/s | – | > 10 | – | > 30 | – | – | – | – | 107

From patent publication US20100061982A1, “3-SUBSTITUTED-1H-INDOLE, 3-SUBSTITUTED-1H-PYRROLO[2,3-B]PYRIDINE AND 3-SUBSTITUTED-1H-PYRROLO[3,2-B]PYRIDINE COMPOUNDS, THEIR USE AS MTOR KINASE AND PI3 KINASE INHIBITORS, AND THEIR SYNTHESES” (priority 2008, published 2010)
